Test results as given in PMC7566913, “Dual Gene Delivery Reagents From Antiproliferative Alkylphospholipids for Combined Antitumor Therapy” (Frontiers in Chemistry, 2020).

How the values were obtained:
sheep RBC = assay: Hemolytic activity, red blood cell leakage assay; settings: 37°C
Description: To evaluate this hypothesis, the hemolytic activity of the APLs and pro-APLs was measured. Sheep RBC were incubated for 1 h with escalating doses of aqueous dispersion of the compounds at 37°C. At the end of the incubation period, hemoglobin leakage was determined spectrophotometrically.
Thus, in order to better characterize the hemolytic effect of the pro-APLs, the incubation period has been extended and release of hemoglobin was measured after 24 h.
Red blood cell (RBC) leakage assay was carried out according to a previously described procedure
(Evans et al, 2013). RBC were prepared from defibrinated sheep blood. Briefly, blood sample (5 mL) was centrifuged at 500 x g for 5 min. After removal of the yellow upper layer, an equal volume of

H292 cells = assay: Antiproliferative effect of pUNO1-hTRAIL vs pCMV-Gluc lipoplexes, MTT, H292; format: cell-based, human; settings: N/P 3, 1 eq. DOPE
Description: Cells were treated with lipoplexes prepared from pro-APLs ME12, PE12, and EE12, with increasing dose of pDNA (0.1–0.4 μg per well). The gold standard gene delivery reagent Lipofectamine® 2000 was assayed in parallel for comparison purpose. In order to distinguish the intrinsic cytotoxic effect of the in situ generated APLs from that resulting from TRAIL expression, pCMV-Gluc was assayed in parallel to pUNO1-hTRAIL. Using pCMV-Gluc, the observed cytotoxicity was assumed to result only from the APL antiproliferative activity, whereas results obtained with pUNO1-hTRAIL are a combination of TRAIL activity and APL antiproliferative effect. […] Though the temptation is to take it as an indicator that functional TRAIL was produced, the difference found was not always statistically significant. The activity profile of the three pro-APLs varied according to the cell line. […]
Figure 8 Antiproliferative effect of lipoplexes prepared from ME12 (A), PE12 (B), EE12 (C), and the two DNA plasmids pCMV-Gluc (light bars) and pUNO1-hTRAIL (dark bars), on the three cell lines. […] Lipofectamine®-based lipoplexes (0.1 μg plasmid/well) were prepared according to the optimized experimental conditions determined following the supplier's instructions. Cell viability was measured by the MTT assay. Basal mitochondrial activity measured in untreated cells is set at 100%. […]

CCCCCCCCCCCCCCCCCCOP(=O)(OCOC(=O)CCCCCCCCCCC)OC1CC[N+](C)(C)CC1.[Cl-] (stereo not drawn) [PE12, 4-((((Dodecanoyloxy)methoxy)(octadecyloxy)phosphoryl)oxy)-1,1-dimethylpiperidin-1-ium chloride]
HA200 (hemolytic activity at 200 μM) (sheep RBC; 1 h): 7.1 ± 0.9%
HA200 (hemolytic activity at 200 μM) (sheep RBC; 24 h): 20.6 ± 5.9%
Cell death specifically induced by TRAIL (H292 cells): ca. 45%
